In patent publication US20260315434A1, “USE OF GUAIACOL SESQUITERPENE LACTONE DERIVATIVES” (NANJING UNIVERSITY OF CHINESE MEDICINE, priority 2023, published 2026):
Converted amounts (≈) assume the structure as drawn. Read-outs that look alike come from different tables or passages of the source.

Tests used:
T cells / MDSCs = assay: Promotion of T cell proliferation in a co-culture model of MDSCs and T cells; format: cell-based, mouse; settings: for activation at 1 µM: Mus musculus, T-cell, 12 h, read-out: T-cell proliferation rate (%), 1 μM, MDSCs treated 12 hours, co-culture of MDSCs and T cells, compared to the control group; for T-cell proliferation rate (%): 1 μM, MDSCs treated 12 hours, co-culture of MDSCs and T cells, compared to the control group
Experimental: Under sterile conditions, the tibia was removed, both ends of the bone were cut, and bone marrow was repeatedly flushed into a 15 mL centrifuge tube using a 1 mL syringe filled with culture medium. Centrifuge at 1600 rpm for 5 min to collect bone marrow cells. […] The spleen cell suspension was then transferred into a 15 mL centrifuge tube. Centrifuge at 1600 rpm for 5 min to collect T cells. Wash twice with 1×PBS. Resuspend the centrifuged T cells in 1 mL PBS and add 1 mL of 10 μM CFDA-SE solution. Incubate at room temperature for 8 min. […] After drug administration, collect MDSC cells into centrifuge tubes. Centrifuge at 1600 rpm for 5 min, remove supernatant, resuspend in 1 mL fresh medium, and plate. Add 1 mL stimulated activated T cells (1:1 ratio) for 48 h co-culture. After incubation, collect cells into centrifuge tubes, wash twice with PBS, and incubate with Fc antibody at room temperature in the dark for 10 min. Add CD3-labeled flow cytometry antibody and incubate at 4° C. in the dark for 30 min. After incubation, wash cells with PBS, resuspend in 300 μL PBS, and analyze by flow cytometry.

[1] = Water solubility testing of compounds (HPLC); settings: deionized water, 37 °C
[2] = Conversion (release) of prodrug salts to parent compound in HEPES buffer pH 7.4; format: in vitro ADME; settings: for degraded at 1 h / degraded at 2 h / degraded at 4 h / degraded at 8 h / degraded at 12 h: hepes buffer, pH 7.4, HEPES pH 7.4, 37 °C; for Release rate (conversion to Compound 83): HEPES pH 7.4, 37 °C
Experimental: (§1) Pharmaceutically acceptable salts of guaiane-type sesquiterpene lactone derivatives were selected and evaluated for their conversion rates to Compound 1 and Compound 83 in plasma and HEPES buffer, with results shown in Tables 2-1, 2-2, 3-1, and 3-2.
Experimental Method: Preparation of HEPES 7.4 Solution: Dissolve 1.6 g NaCl, 0.074 g KCl, 0.027 g Na2HPO4, 0.2 g glucose, and 1 g 4-(2-Hydroxyethyl)piperazine-1-ethanesulfonic acid (HEPES) solution in 90 mL distilled water. Adjust the pH to 7.4 using 0.5 M NaOH, then dilute to a final volume 100 mL with distilled water.
(§2) Sample Analysis: Dissolve 0.6 mg of the compound in 250 μL of deionized water separately. Add 250 μL of mouse serum or HEPES 7.4 solution to the sample, incubate at a constant temperature of 37° C., and collect samples at different time points. Pipette 20 μL of the sample to an EP tube, add 60 μL of methanol, vortex to mix thoroughly, and centrifuge at 12,000 rpm at 4° C. for 10 min. At 1 h, 2 h, 4 h, 8 h, and 12 h respectively, collect the supernatant for HPLC analysis. Inject 10 μL of sample and record the corresponding peak areas. Chromatographic conditions: Hanbang C18 column (4.6×250 mm, 5 μm); mobile phase: acetonitrile: […] ammonium formate solution=60:40; flow rate 1.0 mL/min; detection wavelength 210 nm; column temperature 30° C.

[3] = Conversion (release) of prodrug salts to parent compound in mouse plasma; format: in vitro ADME; settings: 37 °C; for metabolised at 1 h / metabolised at 2 h / metabolised at 4 h / metabolised at 8 h / metabolised at 12 h: mouse, plasma
Experimental: as §1
Plasma Preparation: Collect mouse plasma into an EP tube pre-loaded with sodium heparin, centrifuge at 8000 rpm for 10 minutes at 4° C., and then collect the supernatant.
as §2

[4] = 1 h, read-out: Release rate (conversion to Compound 1)
[5] = 2 h, read-out: Release rate (conversion to Compound 1)
[6] = 4 h, read-out: Release rate (conversion to Compound 1)
[7] = 8 h, read-out: Release rate (conversion to Compound 1)
[8] = 12 h, read-out: Release rate (conversion to Compound 1)
[9] = 1 h, read-out: Release rate (conversion to Compound 83)
[10] = 2 h, read-out: Release rate (conversion to Compound 83)
[11] = 4 h, read-out: Release rate (conversion to Compound 83)
[12] = 8 h, read-out: Release rate (conversion to Compound 83)
[13] = 12 h, read-out: Release rate (conversion to Compound 83)

Row | SMILES | activation at 1 µM (T cells / MDSCs) | Water-solubility [1] | degraded at 1 h [2, 4] | degraded at 2 h [2, 5] | degraded at 4 h [2, 6] | degraded at 8 h [2, 7] | degraded at 12 h [2, 8] | metabolised at 1 h [3, 4] | metabolised at 2 h [3, 5] | metabolised at 4 h [3, 6] | metabolised at 8 h [3, 7] | metabolised at 12 h [3, 8] | T-cell proliferation rate (%) (T cells / MDSCs) | further results
1 | C[C@@]12CC[C@@H]3[C@H](OC(=O)[C@H]3CN3CCCC3)[C@@H]3[C@]1(CC[C@@]3(C)O)C2 [Compound 3] | 20 to 40% | 1.305 mg/mL |  |  |  |  |  |  |  |  |  |  |  | 
2 | C[C@@]12CC[C@@H]3[C@H](OC(=O)[C@H]3CN3CCCCC3)[C@@H]3[C@]1(CC[C@@]3(C)O)C2 [Compound 5] | 20 to 40% | 0.730 mg/mL |  |  |  |  |  |  |  |  |  |  |  | 
3 | C[C@@]12CC[C@@H]3[C@H](OC(=O)[C@H]3CN3CCOCC3)[C@@H]3[C@]1(CC[C@@]3(C)O)C2 [Compound 6] | 0 to 20% | 0.668 mg/mL |  |  |  |  |  |  |  |  |  |  |  | 
4 | CCOC(=O)[C@@H]1CCCN1C[C@@H]1C(=O)O[C@H]2[C@H]1CC[C@@]1(C)C[C@]13CC[C@@](C)(O)[C@H]23 [Compound 23] |  | 362.3 mg/mL | 6.2% | 14.3% | 26.8% | 41.1% | 52.8% | 7.2% | 14.3% | 26.8% | 45.1% | 52.8% | + (T-cell proliferation rate within the 0-20% range compared to the control group) | 
5 | C[C@@]12CC[C@@H]3[C@H](OC(=O)[C@H]3CN3CCC(N4CCCCC4)CC3)[C@@H]3[C@]1(CC[C@@]3(C)O)C2 [Compound 35] |  | 212.6 mg/mL | 6.8% | 14.6% | 26.4% | 43.8% | 52.5% | 6.8% | 13.6% | 26.4% | 44.8% | 52.5% |  | 
6 | C[C@@]12CC[C@@H]3[C@H](OC(=O)[C@H]3CN3CCC(N4CCOCC4)CC3)[C@@H]3[C@]1(CC[C@@]3(C)O)C2 [Compound 36] |  | 234.6 mg/mL | 6.9% | 14.8% | 26% | 43.6% | 52.4% | 6.6% | 14.8% | 26% | 43.6% | 52.1% |  | 
7 | C[C@@]12CC[C@@H]3[C@H](OC(=O)[C@H]3CN3CCC4(CC3)CC4)[C@@H]3[C@]1(CC[C@@]3(C)O)C2 [Compound 37] |  | 357.5 mg/mL | 7.2% | 16.8% | 28.3% | 44.1% | 65.8% | 8.2% | 17.8% | 29.3% | 48.1% | 67.8% |  | 
8 | C[C@@]12CC[C@@H]3[C@H](OC(=O)[C@H]3CN3CCCCCCC3)[C@@H]3[C@]1(CC[C@@]3(C)O)C2 [Compound 38] |  | 250.9 mg/mL | 6.9% | 14.8% | 25.4% | 41.4% | 50.7% | 6.1% | 14.5% | 25.4% | 41.4% | 49.7% |  | 
9 | CC1=C2CC[C@@](C)(OC(=O)N3CCCCC3)[C@@H]2[C@H]2OC(=O)[C@@H](CN3CCCC3)[C@@H]2CC1 [Compound 100] |  |  |  |  |  |  |  |  |  |  |  |  | + (T-cell proliferation rate within the 0-20% range compared to the control group) | degraded at 1 h [2, 9]: 6.5%; degraded at 2 h [2, 10]: 14%; degraded at 4 h [2, 11]: 26.4%; degraded at 8 h [2, 12]: 45.2%; degraded at 12 h [2, 13]: 51.4%; metabolised at 1 h [3, 9]: 6.6%; metabolised at 2 h [3, 10]: 13.8%; metabolised at 4 h [3, 11]: 25.6%; metabolised at 8 h [3, 12]: 43.2%; metabolised at 12 h [3, 13]: 53%; solubility ([1]; water, Water-solubility): 145 mg/mL (≈ 336 mM)
10 | CC1=C2CC[C@@](C)(OC(=O)N3CCCCC3)[C@@H]2[C@H]2OC(=O)[C@@H](CN3CCCC3)[C@@H]2CC1 [Compound 101] |  | 108.0 mg/mL |  |  |  |  |  |  |  |  |  |  | + (T-cell proliferation rate within the 0-20% range compared to the control group) | Release rate (conversion to Compound 83) ([2]; 1 h, 60 min): 7.0%; Release rate (conversion to Compound 83) ([2]; 2 h, 120 min): 16.0%; Release rate (conversion to Compound 83) ([2]; 4 h, 240 min): 28.2%; Release rate (conversion to Compound 83) ([2]; 8 h, 480 min): 46.4%; Release rate (conversion to Compound 83) ([2]; 12 h, 720 min): 53.6%; Release rate (conversion to Compound 83) ([3]; 1 h, 60 min): 7.6%; Release rate (conversion to Compound 83) ([3]; 2 h, 120 min): 16.6%; Release rate (conversion to Compound 83) ([3]; 4 h, 240 min): 27.4%; Release rate (conversion to Compound 83) ([3]; 8 h, 480 min): 46.0%; Release rate (conversion to Compound 83) ([3]; 12 h, 720 min): 54.2%
